Assay results reported in US20170066759A1, “AROMATIC 5-MEMBERED HETEROCYCLIC DERIVATIVE HAVING TRPV4-INHIBITING ACTIVITY” (Shionogi & Co., Ltd., priority 2012, published 2017).
pIC50, pKi: −log10 of the molar value. Read-outs that look alike come from different tables or passages of the source.

Tests used:
[1] = target: T1, human TRPV4 (hTRPV4/CHO cells) (Homo sapiens, UniProt Q9HBA0); assay: Test Example 4: TRPV4 inhibitory activity (Ki value), 4α-PDD stimulation, Fluo-3 calcium fluorescence (FDSS 3000); format: cell-based
T1 construct: expressed in transfected cells; host or cells: CHO-K1
Procedure: TRPV4 Inhibitory Activity (Ki Value)
For each compound, TRPV4 inhibitory activity was measured using cells.
(Method) The procedures of evaluating TRPV4 inhibitory activity of a compound are as follows.
(1) TRPV4 inhibitory activity was measured using CHO-K1 cells stably expressing human TRPV4 (hTRPV4/CHO cells).
(2) Cells were subcultured using the MEM-α medium (SIGMA M4526: 500 ml), FBS (HyCloneSH30070.03: 10%), L-Glutamine 200 mmol/L (GIBCO: 4 mmol/L), P/S (nacalai tesque: 1%), G418 (nacalai tesque: 1 mg/mL).
(3) The 96-well plates which hTRPV4/CHO cells were seeded at densities of 2×10^4 cells/well in the culture medium in the day before the experimental day, and cultured in a CO2 incubator in the presence of 5% CO2 at 37° C. for 24 hours was used as assay plates.
(4) Cells were washed with assay buffer (Hank's Balanced Salt Solution 9.8 g, 1 mol/L HEPES (pH7.5), 250 mmol/L probenecid).
(5) Fluo-3, fluorescent dye for Ca influx assay was added to each well, then the assay plate was incubated in a CO2 incubator in the presence of 5% CO2 at 37° C. for one hour (final conc.; 5 μmol/L Fluo-3).
(6) The assay plate was washed with the assay buffer, and the buffer was remained at 30 μL/well. Then the assay plate was incubated for 10 min at 37° C.
(7) 20 μL of diluted compound solution was added to each well of assay plate, and mixed with built-in Pipette and Mixer of the fluorescence analysis system FDSS 3000 (Hamamatsu Photonics).
(8) 50 μL of 4α-PDD solution (concluding 0.1% Pluronic F-127) was applied to each well of assay plate and mixed.
(9) The fluorescent intensity was measured by FDSS 3000 for 8 min from the point of time addition the compound solution, at Ex 480 nm, Em 540 nm wavelength.
TRPV4 inhibitory activity (Ki value) of a compound was calculated according to the following procedure.
(10) In the presence of the compound, the difference between maximal and minimal of fluorescent intensity value for 8 min from just before addition of 4α-PDD solution was calculated, and it was referred as Max-Min value. Max-Min value of the Ruthenium Red at 10 μM was defined as 100% inhibitory activity, Max-Min value in the absence of the compound was defined as 0% inhibitory activity. TRPV4 inhibitory activity of the compound was calculated by the following formula.
(1−(Max−Min value of the compound−100% inhibitory activity)/(0% inhibitory activity−100% inhibitory activity))×100
(11) By the following formula, inhibitory activity was calculated at 10 points with three fold serial dilution, in the final concentration of the compound from 10 μmol/L to 0.5 nmol/L. The IC50 value was calculated by dose-response curve.
100−[(fluorescent intensity in the presence of the compound−fluorescent intensity of back ground)/(total fluorescent intensity−fluorescent intensity of back ground)]×100
(12) In the presence of the compound, activity of 4α-PDD was measured at 9 points with three fold serial dilution from 20 μmol/L. Activity of 4α-PDD was calculated by the following formula.
(Max−Min value of the each 4α-PDD concentration−0% activity)/(100% activity−0% activity))×100
(13) Effective activity was calculated in 4α-PDD the above. The EC50 value was calculated by dose-response curve.
(14) The Ki value of a compound was calculated by the following formula.
Ki=IC50 value/1+([A]/EC50)
[A]: Concentration of agonist (nmol/L)

[2] = target: T1, human TRPV4 (hTRPV4/CHO cells); assay: Test Example 1: TRPV4 inhibitory activity (IC50 value), 4α-PDD stimulation, Fluo4 calcium fluorescence (FLIPR TETRA); format: cell-based; conditions: Test Example 1, 4α-PDD stimulation, read-out: Test 1 IC50
[3] = Test Example 4, 4α-PDD stimulation, read-out: Test 4 Ki

T1 sequence (Q9HBA0 whole entry): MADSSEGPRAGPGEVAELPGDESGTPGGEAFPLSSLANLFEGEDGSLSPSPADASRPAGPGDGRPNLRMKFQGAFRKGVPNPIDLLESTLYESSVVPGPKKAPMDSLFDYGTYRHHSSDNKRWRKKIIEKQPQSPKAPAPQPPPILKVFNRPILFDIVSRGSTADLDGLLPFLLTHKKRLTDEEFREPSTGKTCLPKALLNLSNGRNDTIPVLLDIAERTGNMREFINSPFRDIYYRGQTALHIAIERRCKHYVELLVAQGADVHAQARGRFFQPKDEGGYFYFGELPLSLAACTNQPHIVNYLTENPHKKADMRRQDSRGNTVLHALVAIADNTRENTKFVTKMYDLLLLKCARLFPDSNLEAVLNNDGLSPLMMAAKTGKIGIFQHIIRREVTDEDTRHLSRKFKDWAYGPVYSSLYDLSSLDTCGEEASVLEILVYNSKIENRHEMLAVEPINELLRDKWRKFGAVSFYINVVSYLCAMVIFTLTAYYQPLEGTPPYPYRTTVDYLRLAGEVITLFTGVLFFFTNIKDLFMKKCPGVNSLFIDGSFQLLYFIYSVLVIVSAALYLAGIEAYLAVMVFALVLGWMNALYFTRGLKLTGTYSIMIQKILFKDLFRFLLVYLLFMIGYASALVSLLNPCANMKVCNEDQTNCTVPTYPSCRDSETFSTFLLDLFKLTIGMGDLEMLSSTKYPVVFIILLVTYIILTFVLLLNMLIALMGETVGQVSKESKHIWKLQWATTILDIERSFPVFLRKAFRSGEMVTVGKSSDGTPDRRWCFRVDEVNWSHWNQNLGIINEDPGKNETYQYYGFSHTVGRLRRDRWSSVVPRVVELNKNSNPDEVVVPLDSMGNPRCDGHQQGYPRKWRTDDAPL

pKi [1, 3]	pIC50 [2]	pKi ([1]; 4α-PDD, Fluo-3, Ki calculated from IC50 and EC50 of 4α-PDD, read-out: TRPV4 inhibitory activity (Ki value))	SMILES
5.52 to 6.00	–	–	Cc1nc(C)c(-c2csc(NC(=O)C3CCC(=O)C3)n2)s1 (racemic) [Compound I-37]
6.00 to 7.00	–	–	Cc1nc(C)c(-c2csc(NC(=O)C3CCC(NCC(F)(F)F)C3)n2)s1 (racemic) [Compound I-39]
> 7.00	–	–	Cc1nc(C)c(-c2csc(NC(=O)[C@H]3CC[C@H](Cl)C3)n2)s1 (racemic) [Compound I-55]
6.00 to 7.00	–	–	Cc1nc(C)c(-c2csc(NC(=O)[C@H]3CC[C@H](C#N)C3)n2)s1 (racemic) [Compound I-56]
6.00 to 7.00	–	–	Cc1nc(C)c(-c2csc(NC(=O)[C@H]3CC[C@H](S(=O)(=O)CC(F)(F)F)C3)n2)s1 (racemic) [Compound I-57]
> 7.00	–	–	Cc1nc(C)c(-c2csc(NC(=O)[C@H]3CC[C@H](SCC(F)(F)F)C3)n2)s1 (racemic) [Compound I-536]
6.00 to 7.00	–	–	Cc1nc(C)c(-c2csc(NC(=O)C(C)(C)c3ccccc3)n2)s1 [Compound I-1]
6.00 to 7.00	6.00 to 7.00	–	Cc1nc(C)c(-c2csc(NC(=O)C3(c4ccc(Cl)cc4)CC3)n2)s1 [Compound I-2]
6.00 to 7.00	6.00 to 7.00	–	Cc1nc(C)c(-c2csc(NC(=O)C(C)(C)c3ccc(Cl)cc3)n2)s1 [Compound I-3]
> 7.00	> 7.00	–	Cc1nc(C)c(-c2csc(NC(=O)C(C)c3ccc(Cl)cc3)n2)s1 (stereo not drawn) [Compound I-4]
6.00 to 7.00	–	–	COC(C(=O)Nc1nc(-c2sc(C)nc2C)cs1)c1ccccc1 (stereo not drawn) [Compound I-5]
5.52 to 6.00	–	–	Cc1nc(C)c(-c2csc(NC(=O)C3CCCO3)n2)s1 (stereo not drawn) [Compound I-6]
6.00 to 7.00	–	–	Cc1nc(C)c(-c2csc(NC(=O)Cc3ccccn3)n2)s1 [Compound I-7]
6.00 to 7.00	–	–	Cc1nc(C)c(-c2csc(NC(=O)C(F)c3ccccc3)n2)s1 (stereo not drawn) [Compound I-8]
6.00 to 7.00	–	–	Cc1nc(C)c(-c2csc(NC(=O)CC(C)(C)C)n2)s1 [Compound I-9]
6.00 to 7.00	–	–	Cc1nc(C)c(-c2csc(NC(=O)c3ccc(F)c(Cl)c3)n2)s1 [Compound I-10]
6.00 to 7.00	–	–	Cc1nc(C)c(-c2csc(NC(=O)C(C)(C)Oc3ccc(Cl)cc3)n2)s1 [Compound I-11]
6.00 to 7.00	–	–	Cc1nc(C)c(-c2csc(NC(=O)C(C)Oc3ccc(Cl)cc3)n2)s1 (stereo not drawn) [Compound I-12]
6.00 to 7.00	–	–	O=C(Cc1ccc(C(F)(F)F)cc1)Nc1nc(-c2sc(Cl)nc2Cl)cs1 [Compound I-15]
6.00 to 7.00	–	–	O=C(Cc1ccc(Br)cc1)Nc1nc(-c2cnc(Cl)s2)cs1 [Compound I-16]
> 7.00	–	7.46	Cc1nc(C)c(-c2csc(NC(=O)Cc3ccc(C(F)(F)F)c(F)c3)n2)s1 [Compound I-20]
> 7.00	–	–	Cc1nc(C)c(-c2csc(NC(=O)Cc3ccc(OC(F)(F)F)cc3)n2)s1 [Compound I-21]
> 7.00	–	–	Cc1nc(C)c(-c2csc(NC(=O)Cc3ccc(SC(F)(F)F)cc3)n2)s1 [Compound I-22]

pKi [1, 3]	pIC50 [2]	pKi ([1]; 4α-PDD, Fluo-3, Ki calculated from IC50 and EC50 of 4α-PDD, read-out: TRPV4 inhibitory activity (Ki value))	SMILES
6.00 to 7.00	–	–	C=C(C)c1ncc(-c2csc(NC(=O)Cc3ccc(S(=O)(=O)C(F)(F)F)cc3)n2)s1 [Compound I-25]
6.00 to 7.00	–	–	Cc1nc(C)c(-c2csc(NC(=O)C3(O)CC3)n2)s1 [Compound I-26]
6.00 to 7.00	–	–	Cc1nc(C)c(-c2csc(NC(=O)C3(C)CC3)n2)s1 [Compound I-28]
6.00 to 7.00	–	–	Cc1nc(C)c(-c2csc(NC(=O)CC3CC3)n2)s1 [Compound I-33]
> 7.00	–	–	Cc1nc(C)c(-c2csc(NC(=O)CCC(F)(F)F)n2)s1 [Compound I-38]
6.00 to 7.00	–	–	Cc1nc(C)c(-c2csc(NC(=O)CC#N)n2)s1 [Compound I-40]
6.00 to 7.00	–	–	Cc1nc(C)c(-c2csc(NC(=O)CCS(=O)(=O)c3ccccc3)n2)s1 [Compound I-41]
6.00 to 7.00	–	–	Cc1nc(C)c(-c2csc(NC(=O)Cc3c[nH]c4ccccc34)n2)s1 [Compound I-44]
6.00 to 7.00	–	–	Cc1nc(C)c(-c2csc(NC(=O)CC(F)(F)F)n2)s1 [Compound I-45]
> 7.00	–	–	Cc1nc(C)c(-c2csc(NC(=O)Cc3ccc(Cl)c(F)c3)n2)s1 [Compound I-48]
5.52 to 6.00	–	–	Cc1nc(C)c(-c2csc(NC(=O)CC3CCS(=O)(=O)C3)n2)s1 (stereo not drawn) [Compound I-51]
> 7.00	–	–	Cc1nc(C)c(-c2csc(NC(=O)Cc3cc(F)cc(F)c3)n2)s1 [Compound I-52]
> 7.00	–	–	Cc1nc(C)c(-c2csc(NC(=O)CC3CCC3)n2)s1 [Compound I-54]
> 7.00	–	–	Cc1nc(C)c(-c2csc(NC(=O)Cc3c(F)cccc3F)n2)o1 [Compound I-58]
6.00 to 7.00	–	–	CCCC(=O)Nc1nc(-c2sc(C)nc2C)cs1 [Compound I-219]
6.00 to 7.00	–	–	CCCCCCCCCCCC(=O)Nc1nc(-c2sc(C)nc2C)cs1 [Compound I-220]
> 7.00	–	–	CCCCCCCC(=O)Nc1nc(-c2sc(C)nc2C)cs1 [Compound I-221]
> 7.00	–	–	CCCCCC(=O)Nc1nc(-c2sc(C)nc2C)cs1 [Compound I-222]
6.00 to 7.00	–	–	Cc1nc(C)c(-c2csc(NC(=O)c3ccc(Cl)cc3)n2)s1 [Compound I-227]
6.00 to 7.00	–	–	Cc1nc(C)c(-c2csc(NC(=O)CCc3ccccc3)n2)s1 [Compound I-228]
> 7.00	–	–	Cc1nc(C)c(-c2csc(NC(=O)COc3ccc(Cl)cc3)n2)s1 [Compound I-229]
> 7.00	–	–	Cc1nc(C)c(-c2csc(NC(=O)Cc3ccc(Cl)cc3)n2)s1 [Compound I-230]
6.00 to 7.00	–	–	Cc1nc(C)c(-c2csc(NC(=O)Cc3ccc(Br)cc3)n2)o1 [Compound I-231]

pKi [1, 3]	pIC50 [2]	pKi ([1]; 4α-PDD, Fluo-3, Ki calculated from IC50 and EC50 of 4α-PDD, read-out: TRPV4 inhibitory activity (Ki value))	SMILES
6.00 to 7.00	–	–	Cc1nc(C)c(-c2csc(NC(=O)c3ccc(Br)cc3)n2)s1 [Compound I-232]
5.52 to 6.00	–	–	Cc1nc(C)c(-c2csc(NC(=O)Nc3ccc(Br)cc3)n2)s1 [Compound I-233]
5.52 to 6.00	–	–	Cc1nc(C)c(-c2csc(NC(=O)c3ccccc3)n2)s1 [Compound I-234]
6.00 to 7.00	–	–	O=C(Nc1nc(-c2sc(Cl)nc2Cl)cs1)C1CCC(F)(F)C1 (stereo not drawn) [Compound I-535]
6.00 to 7.00	–	–	CC(=O)c1ccc(Nc2nc(-c3sc(C)nc3C)cs2)cc1 [II-25]
6.00 to 7.00	–	–	Cc1nc(C)c(-c2csc(Nc3ccc(Cl)cc3)n2)s1 [II-26]
6.00 to 7.00	–	–	Cc1nc(C)c(-c2csc(Nc3ccc(F)cc3)n2)s1 [II-27]
6.00 to 7.00	–	–	Cc1nc(C)c(-c2csc(Nc3ccc(N(C)C)cc3)n2)s1 [II-28]
6.00 to 7.00	–	–	COc1ccc(Nc2nc(-c3sc(C)nc3C)cs2)cc1 [II-29]
6.00 to 7.00	–	–	Cc1nc(C)c(-c2csc(Nc3ccccc3)n2)s1 [II-30]
–	> 7.00	–	Cc1nc(CO)sc1-c1csc(Nc2ccccn2)n1 [II-32]
–	5.10 to 6.00	–	Cc1nc(C)c(-c2csc(NCC(F)(F)c3ccccc3)n2)s1 [II-33]
–	> 7.00	–	Cc1nc(C)c(-c2csc(Nc3cnccn3)n2)s1 [II-34]
–	> 7.00	–	Cc1nc(C)c(-c2csc(NCCc3ccccc3)n2)s1 [II-35]
–	> 7.00	–	Cc1nc(C)c(-c2csc(NCCc3ccc(Cl)cc3)n2)s1 [II-36]
–	> 7.00	–	Cc1nc(C)c(-c2csc(NC3CCCCC3)n2)s1 [II-37]
–	> 7.00	–	Cc1nc(C)c(-c2csc(NC3CCCC3)n2)s1 [II-38]
–	6.00 to 7.00	–	Cc1nc(C)c(-c2csc(Nc3cccnc3)n2)s1 [II-40]
–	5.10 to 6.00	–	Cc1nc(C)c(-c2csc(Nc3ccncc3)n2)s1 [II-41]
–	6.00 to 7.00	–	Cc1nc(C)c(-c2csc(NCCOc3ccccc3)n2)s1 [II-47]
–	> 7.00	–	Cc1nc(C)c(-c2csc(NCC3Cc4ccccc4C3)n2)s1 [II-49]
–	5.10 to 6.00	–	Cc1nc(C)c(-c2csc(CCOCc3ccc(Br)cc3)n2)s1 [II-51]
